# Results taken from patent publication US6737383B1, “Herbicidal oxadiazolidines” (priority 1999, dated 2004).
# What was measured:
# [1] = system: corn; assay: Test B pre/postemergence corn; type: in vivo, Zea mays
# Procedure, shortened: (§1)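 Herbicidal effect was estimated by eye on a ten-point control scale after plants spent twelve to sixteen days in a greenhouse following soil or foliar treatment. Foliar sprays targeted plants at one to four leaves; all doses were formulated in a non-phytotoxic solvent with surfactant.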
# [2] = system: morningglory; assay: Test B pre/postemergence morningglory; type: in vivo, Ipomoea hederacea
# Procedure, shortened: as §1
# [3] = system: crabgrass; assay: Test B pre/postemergence crabgrass; type: in vivo, Digitaria sanguinalis
# Procedure, shortened: as §1
# [4] = system: blackgrass; assay: Test B pre/postemergence blackgrass; type: in vivo, Alopecurus myosuroides
# Procedure, shortened: as §1
# [5] = system: rape; assay: Test B pre/postemergence rape; type: in vivo, Brassica napus
# Procedure, shortened: as §1
# [6] = system: surinam grass; assay: Test B pre/postemergence surinam grass; type: in vivo, Brachiaria decumbens
# Procedure, shortened: as §1
# [7] = system: soybean; assay: Test B pre/postemergence soybean; type: in vivo, Glycine max
# Procedure, shortened: as §1
# [8] = system: wheat; assay: Test B pre/postemergence wheat; type: in vivo, Triticum aestivum
# Procedure, shortened: as §1
# [9] = system: giant foxtail; assay: Test B pre/postemergence giant foxtail; type: in vivo, Setaria faberii
# Procedure, shortened: as §1
# [10] = system: wild oat; assay: Test B pre/postemergence wild oat; type: in vivo, Avena fatua
# Procedure, shortened: as §1
# [11] = system: pigweed; assay: Test B pre/postemergence pigweed; type: in vivo, Amaranthus retroflexus
# Procedure, shortened: as §1
# [12] = system: cocklebur; assay: Test B pre/postemergence cocklebur; type: in vivo, Xanthium strumarium
# Procedure, shortened: as §1
# [13] = system: bedstraw; assay: Test B pre/postemergence bedstraw; type: in vivo, Galium aparine
# Procedure, shortened: as §1
# [14] = system: purple nutsedge; assay: Test B pre/postemergence purple nutsedge; type: in vivo, Cyperus rotundus
# Procedure, shortened: as §1
# [15] = system: velvetleaf; assay: Test B pre/postemergence velvetleaf; type: in vivo, Abutilon theophrasti
# Procedure, shortened: as §1
# [16] = Postemergence, Rate 125 g/ha, scale of 0 to 10 where 0 is no effect and 10 is complete control
# [17] = Preemergence, Rate 62 g/ha, scale 0 to 10 (0 no effect, 10 complete control)
# [18] = Preemergence, Rate 125 g/ha, 0 is no effect, 10 is complete control
# [19] = Preemergence, Rate 250 g/ha, scale 0 to 10, 0 is no effect, 10 is complete control
# [20] = Preemergence, Rate 500 g/ha, scale 0 to 10 (0 no effect, 10 complete control)
# [21] = Rate 62 g/ha, Postemergence, scale of 0 to 10 where 0 is no effect and 10 is complete control
# [22] = Rate 250 g/ha, Postemergence, scale 0 to 10, 0 is no effect, 10 is complete control
# [23] = Rate 500 g/ha, Postemergence, scale 0 to 10
smiles,measurement,setting,value
CC(C)c1noc(C(C)C)c1-n1c(=O)on(C(=O)N(c2ccc(F)cc2)C(C)C)c1=O [Compound 135],Corn plant response rating,[1]; [16],0
same,Corn plant response rating,[1]; [17],0
same,Corn plant response rating (0 to 10 scale),[1]; [18],0
same,Corn plant response rating,[1]; [19],0
same,Corn plant response rating,[1]; [20],0
same,Corn plant response rating,[1]; [21],0
same,"Plant response rating, Corn",[1]; [22],0
same,Corn plant response rating,[1]; [23],0
same,Morningglory plant response rating,[2]; [16],1
same,Morningglory plant response rating,[2]; [17],0
same,Morningglory plant response rating (0 to 10 scale),[2]; [18],0
same,Morningglory plant response rating,[2]; [19],0
same,Morningglory plant response rating,[2]; [20],0
same,Morningglory plant response rating,[2]; [21],0
same,"Plant response rating, Morningglory",[2]; [22],1
same,Morningglory plant response rating,[2]; [23],1
same,Crabgrass plant response rating,[3]; [16],0
same,Crabgrass plant response rating,[3]; [17],0
same,Crabgrass plant response rating (0 to 10 scale),[3]; [18],0
same,Crabgrass plant response rating,[3]; [19],0
same,Crabgrass plant response rating,[3]; [20],4
same,Crabgrass plant response rating,[3]; [21],0
same,"Plant response rating, Crabgrass",[3]; [22],0
same,Blackgrass plant response rating,[4]; [16],0
same,Blackgrass plant response rating,[4]; [17],0
same,Blackgrass plant response rating (0 to 10 scale),[4]; [18],0
same,Blackgrass plant response rating,[4]; [19],0
same,Blackgrass plant response rating,[4]; [20],4
same,Blackgrass plant response rating,[4]; [21],0
same,"Plant response rating, Blackgrass",[4]; [22],0
same,Blackgrass plant response rating,[4]; [23],0
same,Rape plant response rating,[5]; [16],0
same,Rape plant response rating,[5]; [17],0
same,Rape plant response rating (0 to 10 scale),[5]; [18],0
same,Rape plant response rating,[5]; [19],0
same,Rape plant response rating,[5]; [20],0
same,Rape plant response rating,[5]; [21],0
same,"Plant response rating, Rape",[5]; [22],0
same,Rape plant response rating,[5]; [23],0
same,B. signalgrass plant response rating,[6]; [16],0
same,B. signalgrass plant response rating,[6]; [17],0
same,B. signalgrass plant response rating (0 to 10 scale),[6]; [18],0
same,B. signalgrass plant response rating,[6]; [19],3
same,B. signalgrass plant response rating,[6]; [20],4
same,B. signalgrass plant response rating,[6]; [21],0
same,"Plant response rating, B. signalgrass",[6]; [22],0
same,B. signalgrass plant response rating,"[6]; Rate 500 g/ha, Postemergence, scale of 0 to 10 where 0 is no effect and 10 is complete control",0
same,Soybean plant response rating,[7]; [16],2
same,Soybean plant response rating,[7]; [17],0
same,Soybean plant response rating (0 to 10 scale),[7]; [18],0
same,Soybean plant response rating,[7]; [19],0
same,Soybean plant response rating,[7]; [20],0
same,Soybean plant response rating,[7]; [21],2
same,"Plant response rating, Soybean",[7]; [22],3
same,Soybean plant response rating,[7]; [23],3
same,Wheat plant response rating,[8]; [16],0
same,Wheat plant response rating,[8]; [17],0
same,Wheat plant response rating (0 to 10 scale),[8]; [18],0
same,Wheat plant response rating,[8]; [19],0
same,Wheat plant response rating,[8]; [20],0
same,Wheat plant response rating,[8]; [21],0
same,"Plant response rating, Wheat",[8]; [22],0
same,Wheat plant response rating,[8]; [23],0
same,Giant foxtail plant response rating,[9]; [16],0
same,Giant foxtail plant response rating,[9]; [17],0
same,Giant foxtail plant response rating (0 to 10 scale),[9]; [18],0
same,Giant foxtail plant response rating,[9]; [19],0
same,Giant foxtail plant response rating,[9]; [21],0
same,"Plant response rating, Giant foxtail",[9]; [22],0
same,Giant foxtail plant response rating,[9]; [23],0
same,Wild oats plant response rating,[10]; [16],0
same,Wild oats plant response rating,[10]; [17],0
same,Wild oats plant response rating (0 to 10 scale),[10]; [18],0
same,Wild oats plant response rating,[10]; [19],0
same,Wild oats plant response rating,[10]; [20],0
same,Wild oats plant response rating,[10]; [21],0
same,"Plant response rating, Wild oats",[10]; [22],0
same,Wild oats plant response rating,[10]; [23],0
same,Redroot pigweed plant response rating,[11]; [16],0
same,Redroot pigweed plant response rating (0 to 10 scale),[11]; [18],3
same,Redroot pigweed plant response rating,[11]; [19],4
same,Redroot pigweed plant response rating,[11]; [20],4
same,Redroot pigweed plant response rating,[11]; [21],0
same,"Plant response rating, Redroot pigweed",[11]; [22],0
same,Redroot pigweed plant response rating,[11]; [23],0
same,Cocklebur plant response rating,[12]; [16],0
same,Cocklebur plant response rating,[12]; [17],0
same,Cocklebur plant response rating (0 to 10 scale),[12]; [18],0
same,Cocklebur plant response rating,[12]; [19],0
same,Cocklebur plant response rating,[12]; [20],0
same,Cocklebur plant response rating,[12]; [21],0
same,"Plant response rating, Cocklebur",[12]; [22],0
same,Cocklebur plant response rating,[12]; [23],0
same,Bedstraw plant response rating,[13]; [16],0
same,Bedstraw plant response rating (0 to 10 scale),[13]; [18],0
same,Bedstraw plant response rating,[13]; [19],0
same,Bedstraw plant response rating,[13]; [20],4
same,Bedstraw plant response rating,[13]; [21],0
same,"Plant response rating, Bedstraw",[13]; [22],2
same,Nutsedge plant response rating,[14]; [16],0
same,Nutsedge plant response rating,[14]; [17],0
same,Nutsedge plant response rating (0 to 10 scale),[14]; [18],0
same,Nutsedge plant response rating,[14]; [19],0
same,Nutsedge plant response rating,[14]; [20],0
same,Nutsedge plant response rating,[14]; [21],0
same,"Plant response rating, Nutsedge",[14]; [22],0
same,Nutsedge plant response rating,[14]; [23],0
same,Velvetleaf plant response rating,[15]; [16],0
same,Velvetleaf plant response rating,[15]; [17],0
same,Velvetleaf plant response rating (0 to 10 scale),[15]; [18],0
same,Velvetleaf plant response rating,[15]; [19],0
same,Velvetleaf plant response rating,[15]; [20],0
same,Velvetleaf plant response rating,[15]; [21],0
same,"Plant response rating, Velvetleaf",[15]; [22],0
same,Velvetleaf plant response rating,[15]; [23],0
